Measurements published in paper PMC12188386, “Selective CBP/EP300 Bromodomain Inhibitors: Novel Epigenetic Tools to Counter TNF-α-Driven Inflammation” (JACS Au, 2025).

Tests used:
MRC5 cells = assay: viability assay (resazurin); type: cell-based; conditions: three-day treatment, concentration resulting in 70 % viability
Description: MRC5 (2x10^3 cells/well) or THP-1 (8x10^3 cells/well) cells were plated onto 96 well plates and treated with compounds at a final DMSO concentration of 0.5 % (MRC5) or 0.1 % (THP-1).
After 3 days of treatment, resazurin (Acros Organics) was added at a final concentration of 86 μ and incu ated for 2h15 (MRC5) or 3 h (THP-1). Fluorescence (ex. 560 nm, em. 590 nm) was read using a SpectraMax M5 (Molecular devices). GI30 values were calculated as the compound concentration resulting in 70 % viability compared to DMSO treated controls using a nonlinear regression fit using GraphPad Prism with the following equation: (Y=Bottom + (100-Bottom)/(1+(IC50/X)^HillSlope)). […]
After 1.5 h, mice were injected with 10 µL of the prepared CAPTISOL […]
(§1) foodpad and also intraperitoneally (for i.p. injection, the 10 µL of CAPTISOL solution was diluted to a final volume of 100 µL using PBS). Organs were collected 5 h after TNF-α […]
(§2) LEGENDPlexTM assays (Mouse Pro-inflammatory Chemokine Panel and Mouse Inflammation Panel; Biolegend) were performed to monitor cytokine/chemokine expression. Briefly, popliteal LNs were collected and carefully disrupted in […] ice-cold phosphate buffer, minimizing cell rupture. The suspension was centrifuged at 1,500 rpm for 5 min, and the […]

[1] = system: rmTNF-α-induced cytokines in the popliteal lymph node; assay: TNF-α induced inflammation model, cytokines in pLN (LEGENDplex); type: in vivo, mouse; conditions: mice, 5 h post-rmTNF-α; for concentrations of IL-1β, MCP-1, IL-1α and IL-6 in the pLN: CAPTISOL solutions s.c. (footpad) and i.p. 90 min after rmTNF-α, vs rmTNF-α + CAPTISOL
Description: C57BL/6 mice were bred in -house or acquired from Charles River Laboratories. Mice were maintained in specific pathogen -free facilities at the Institute for Research in Biomedicine, Bellinzona. Experiments were performed following the Swiss Federal Veterina ry Office guidelines and authorized by the relevant institutional committee of the Cantonal Veterinary (Commissione cantonale per gli esperimenti sugli animali, Ticino) .
TNF-α induced inflammation model
Recombinant Mouse TNF-α (rmTNF-α) (aa 80-235) Protein (Cat# 410-MT-050/CF) was purchased from RnDsystems® and resuspended following instruction into sterile PBS. Mice were anesthetized with isoflurane and 300 ng of rmTNF-α was administered subcutaneously in the footpad (10 µL injection volume), and for the experiments with the CBP/EP300 inhibitors an additional 300 ng of rmTNF-α was also administered intraperitoneally (100 µL injection volume). After 1.5 h, mice were injected with 10 µL of the prepared CAPTISOL […]
as §1, §2
supernatant was c ected. μ supernatant was used f r the pr t c f win the manufacturer’s instructi ns. amp es were ana zed f w c t metr n an rtessa Biosciences), and data was analyzed using LEGENDPlex software (BioLegend).
Popliteal LNs were collected, disrupted with tweezers, and digested for 10 min at 37°C in an enzyme mix composed of DNase I (0.28 mg/mL, Amresco), dispase (1 U/mL, Corning), and collagenase P (0.5 mg/mL, Roche) in calcium- and magnesium-free PBS (PBS-, Sigma-Aldrich) followed by a stop solution composed of 2 mM EDTA (Sigma -Aldrich) and 2% heat-inactivated filter-sterilized fetal calf serum (Thermo Fisher Scientific) in PBS -. […] Where indicated, intracellular staining was performed using Intracellular Fixation and Permeabilization Buffer Set (eBioscience), following the manufacturer’s instructi ns. ead ce s were exc uded u sing Zombie fixable viability dye (Biolegend), and data were analyzed using FlowJo software (TriStar Inc).
In this study, various combinations of the following fluorescence -conjugated antibodies have been used for cell-surface phen t pic stainin : α - α α […]
Data was analysed and graphs prepared using GraphPad Prism. […]

Row | SMILES | GI30 (MRC5 cells) | decrease of IL-6 in the pLN compared to GNE-272 [1] | concentrations of IL-1β, MCP-1, IL-1α and IL-6 in the pLN [1]
1 | Cc1cc2c(NC(=O)c3cc(NC(=O)c4ccco4)cc(-c4ccn(C)n4)c3)cccc2nn1 [Compound 2] | > 10 µM | 4 fold | significant reduction
2 | Cc1cc2c(NC(=O)c3cc(NC(=O)[C@H]4CCCO4)cc(-c4ccn(C)n4)c3)cccc2nn1 [Compound 5] | > 10 µM | 7 fold | significant reduction
